Where two headings read alike, the source gives them in different places.
How the values were obtained:
[1] = Pharmacokinetic analysis of CBN and metabolites in rat plasma and brain (LC-MS/MS); format: in vivo; details: for Kp: brain and plasma, 10 mg/kg, read-out: Brain/plasma ratio
Method: Rats received 10 mg/kg CBN IP at approximately ZT13. Rats were then anesthetized with isoflurane at selected ZT points (13, 13.5, 14, 15, 17, 19, and 21) and blood was collected by terminal cardiac puncture. Brains were harvested, snap frozen on dry ice and plasma was isolated via centrifugation at 9000 × g for 10 min at 4 °C. All tissues were stored at −80 °C until analysis. CBN and metabolite concentrations in plasma and brain samples were assayed by liquid chromatography-tandem mass spectrometry (LC–MS/MS) using a using a Shimadzu Nexera LC-30AD UHPLC system coupled to a Shimadzu SPD-20AV photodiode array detector and a Shimadzu LC–MS-8040 triple-quadrupole mass spectrometer, equipped with an electrospray ionization (ESI) source (Shimadzu Corp.; Kyoto, Japan) as described previously.
LC-MS/MS. Plasma samples (50 µL) were spiked with internal standard (12.5 µg/mL d3-THC, 5 µL) and protein precipitation was achieved by vortex-mixing with a 3x volume of ice-cold acetonitrile. The organic layer was isolated by centrifugation (6000 g for 10 min, 4 °C) and evaporated to dryness using N2 gas. Samples were reconstituted in acetonitrile (90 µL) and 0.1% ammonium formate in water (300 µL) for supported-liquid extraction (SLE) using dichloromethane and methyl tert-butyl ether Biotage Isolute SLE+ columns (Uppsala, Sweden) as previously described. Brain samples were prepared as described for plasma samples with minor modifications. Briefly, each half brain was homogenised in methanol: water (2:1, 10x, w/v) and spiked with d3-THC as an internal standard. Homogenates were centrifuged (20,000 g for 30 min, 4 °C). Supernatants were then extracted and prepared as described above.
Quantification of CBN, 11-OH-CBN and 11-COOH-CBN in plasma and brain samples was performed by comparing experimental samples to eight-point standard curves prepared with known amounts of cannabinoid. Plasma and brain concentrations at each time point were averaged and pharmacokinetic parameters were calculated by noncompartmental analysis. Elimination rate constants were determined by linear regression of the terminal component of the concentration-time curve using GraphPad Prism 8.2 (La Jolla, USA). The log-linear trapezoidal method was used to calculate the area under concentration-time curve using equations described previously.

human CB2 receptors = molecular target: T1, human CB2 receptors (Homo sapiens, UniProt P34972); assay: Membrane potential (GIRK) assay in AtT20 cells, human CB2; format: cell-based; details: at 30 µM; normalized to 1 µM CP 55,940
T1 construct: expressed in transfected cells; host or cells: mouse AtT20 FlpIn cells

human CB1 receptors = human CB1 receptors (Homo sapiens, UniProt P21554); assay: cell-based; format: cell-based; design: expressed in transfected cells; host or cells: mouse AtT20 FlpIn cells
rat CB1 receptors = system: rat CB1 receptors; design: method as in PMID 9379442; details: adenylyl cyclase inhibition; higher potency than CBN; efficacy not reported; cited from earlier work
male Long-Evans rats = assay: Acute polysomnography (wireless EEG/EMG telemetry) in rats; details: for NREM delta power / REM theta power: EEG power spectra; for NREM delta power: overall effect; for NREM delta power / REM theta power / body temperature / locomotor activity counts: acute IP; for NREM delta power / REM theta power / total sleep time / % NREM sleep / % REM sleep / % active wake / % quiet wake / NREM sleep onset latency / REM bout duration / REM bout number / REM sleep onset latency / cumulative total sleep time / mean duration of NREM bouts per hour / number of NREM bouts per hour / total wake time / body temperature / locomotor activity counts: zolpidem 10 mg/kg; for total sleep time: acute IP at ZT13 (dark phase) vs vehicle, n = 8; for body temperature: subcutaneous; for body temperature / locomotor activity counts: telemetry
mice = details: cited from earlier work; for NREM: mice
rats = system: rats; design: method as in PMID 28934522, PMID 37507813; details: cited from earlier work
rabbits = system: rabbits; design: method as in PMID 4355439; details: cited from earlier work
[2] = design: method as in PMID 4337346; details: early human study; cited from earlier work
[3] = ip, rat plasma after CBN 10 mg/kg, post-dose, read-out: plasma Tmax (converted)
[4] = rat brain after CBN 10 mg/kg IP, analyte as labelled
[5] = rat brain after CBN 10 mg/kg IP, analyte as labelled, n = 4
[6] = rat plasma after CBN 10 mg/kg IP, analyte as labelled
[7] = rat plasma after CBN 10 mg/kg IP, analyte as labelled, n = 4
[8] = rat, ip, rat, after CBN 10 mg/kg IP, analyte as labelled
[9] = CBN 10, 30, 100 mg/kg, 11-OH-CBN 1, 3, 10 mg/kg
[10] = acute IP at ZT13 vs vehicle, CBN 10, 30, 100 mg/kg, 11-OH-CBN 1, 3, 10 mg/kg

Sequence of human CB1 receptors (P21554 whole entry): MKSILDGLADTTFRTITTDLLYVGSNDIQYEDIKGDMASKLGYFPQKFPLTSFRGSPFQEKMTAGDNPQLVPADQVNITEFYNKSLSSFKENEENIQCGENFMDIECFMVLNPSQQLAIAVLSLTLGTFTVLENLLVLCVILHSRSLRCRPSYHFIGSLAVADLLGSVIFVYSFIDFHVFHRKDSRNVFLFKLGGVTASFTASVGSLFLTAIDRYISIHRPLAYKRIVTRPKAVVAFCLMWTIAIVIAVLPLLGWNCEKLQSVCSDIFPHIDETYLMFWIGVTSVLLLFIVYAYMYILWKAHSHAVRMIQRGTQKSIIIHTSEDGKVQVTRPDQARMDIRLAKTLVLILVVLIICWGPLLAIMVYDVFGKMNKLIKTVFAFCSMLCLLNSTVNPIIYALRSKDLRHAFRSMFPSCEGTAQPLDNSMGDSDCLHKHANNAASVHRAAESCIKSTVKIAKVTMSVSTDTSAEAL
T1 sequence (P34972 whole entry): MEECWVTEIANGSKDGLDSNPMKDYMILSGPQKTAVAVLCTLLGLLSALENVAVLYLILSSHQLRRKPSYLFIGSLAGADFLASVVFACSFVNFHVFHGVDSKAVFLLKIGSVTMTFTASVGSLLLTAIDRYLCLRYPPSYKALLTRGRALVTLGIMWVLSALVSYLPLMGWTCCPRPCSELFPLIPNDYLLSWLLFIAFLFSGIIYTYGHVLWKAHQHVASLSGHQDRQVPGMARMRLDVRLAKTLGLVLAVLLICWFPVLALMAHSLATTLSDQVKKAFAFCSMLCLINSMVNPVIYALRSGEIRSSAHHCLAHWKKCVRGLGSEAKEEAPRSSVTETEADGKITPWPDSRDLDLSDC

## CCCCCc1cc(O)c2c(c1)OC(C)(C)c1ccc(C(=O)O)cc1-2 [11-COOH-CBN, 11-carboxy-cannabinol]
[1]; ip, rat brain after CBN 10 mg/kg, read-out: brain T1/2 (converted)
  half-life: 3.48 h
[1]; [3]
  Tmax: 1 h
[1]; ip, rat plasma after CBN 10 mg/kg, read-out: t1/2 plasma (converted)
  half-life: 4.52 h
[1]; [4]
  Brain AUC∞: 137 pg hour/mg brain
  Brain t½: 3.48 h
[1]; [5]
  Brain Cmax: 28 ± 5 pg/mg brain
[1]; rat brain after CBN 10 mg/kg IP, analyte as labelled, read-out: Brain tmax
  Tmax: 2 h
[1]; [6]
  Plasma AUC∞: 1181 ng·h/mL
  Plasma t½: 4.52 h
[1]; [7]
  Cmax: 169 ± 38 ng/mL
[1]; [8]
  Kp: 0.12
Human CB2 receptors
  activity at CB2: 41 ± 2%
Human CB1 receptors; 30 µM (highest concentration tested), normalized to 1 µM CP 55,940
  response at CB1: 43 ± 7%
Human CB1 receptors; membrane potential assay
  activity at CB1 receptors (in words): minimal activity

## CCCCCc1cc(O)c2c(c1)OC(C)(C)c1ccc(CO)cc1-2 [11-OH-CBN, 11-hydroxy-cannabinol]
[1]; ip, rat brain after CBN 10 mg/kg, read-out: brain Tmax
  Tmax: 2 h
[1]; [3]
  Tmax: 1 h
[1]; ip, rat, after CBN 10 mg/kg, similar in plasma and brain, read-out: half-life in plasma and brain (converted)
  half-life: ~2 h
[1]; [4]
  Brain AUC∞: 1539 pg hour/mg brain
[1]; [5]
  Brain Cmax: 419 ± 37 pg/mg brain
[1]; rat brain after CBN 10 mg/kg IP, analyte as labelled, read-out: Brain t½ (converted)
  half-life: 2.08 h
[1]; rat brain following systemic administration of CBN
  Brain Cmax: 1.3 µM
[1]; [6]
  Plasma AUC∞: 493 ng·h/mL
[1]; [7]
  Cmax: 170 ± 18 ng/mL
[1]; rat plasma after CBN 10 mg/kg IP, analyte as labelled, read-out: Plasma t½ (converted)
  half-life: 2.18 h
[1]; rat, after CBN 10 mg/kg IP, analyte as labelled
  Brain/plasma ratio: ~3
[1]; [8]
  Kp: 3.12
Human CB2 receptors
  activity at CB2: 50 ± 6%
Rat CB1 receptors
  potency at rat CB1 receptors: low nM range
Male Long-Evans rats; [9]
  NREM delta power: significantly increased
  REM theta power: significantly increased
  total sleep time: did not significantly increase
  body temperature: decreased
  locomotor activity counts: biphasic effect
Male Long-Evans rats; acute IP at ZT13
  delayed onset of action on % NREM sleep, time post-dosing: 3 to 4 h
Male Long-Evans rats; [10]
  cumulative NREM time: biphasic effect
  cumulative REM time: suppressed I cumulative REM at the highest dose
  % NREM sleep: increased
  % REM sleep: biphasically affected
  % active wake: decreased
  % quiet wake: decreased
  NREM sleep onset latency: increased
  REM bout duration: did not affect
  REM bout number: affected
  REM sleep onset latency: increased
  cumulative total sleep time: biphasically influenced
  mean duration of NREM bouts per hour: significantly decreased
  number of NREM bouts per hour: increased
  total wake time: did not significantly reduce
Human CB1 receptors; CB1, membrane potential assay, AtT20 cells, read-out: pEC50 (converted)
  EC50: 1 µM
Human CB1 receptors; CB1, normalized to 1 µM CP 55,940, AtT20 cells, read-out: maximal response (Emax)
  Emax: 75 ± 3%
Human CB1 receptors; membrane potential assay
  activity at CB1 receptors (in words): modestly potent partial agonist

## O=S(=O)(F)CCCCCc1ccc(O)cc1 [AM3506]
mice
  REM: suppressed
  NREM: increased

## CCCCCCC(C)(C)c1ccc([C@H]2CCC[C@@H](O)C2)c(O)c1 [CP 47,497]
mice
  NREM: increased

## O=C(Oc1ccc([N+](=O)[O-])cc1)N1CCC(C(O)(c2ccc3c(c2)OCO3)c2ccc3c(c2)OCO3)CC1 [JZL184]
mice
  REM: suppressed
  NREM: increased

## Cc1ccc(-c2nc3ccc(C)cn3c2CC(=O)N(C)C)cc1 [zolpidem, reference compound]
Male Long-Evans rats; CBN 30 mg/kg and 100 mg/kg at ZT17 and 18, zolpidem 10 mg/kg at ZT13 and 14
  NREM delta power at specific time points: increase
Male Long-Evans rats; [9]
  NREM delta power: Neither CBN nor zolpidem had robust effects
  REM theta power: increased
  total sleep time: increased
  body temperature: did not robustly effect
  locomotor activity counts: decreased
Male Long-Evans rats; [10]
  % NREM sleep: increased
  % REM sleep: did not affect
  % active wake: decreased
  % quiet wake: did not affect
  NREM sleep onset latency: decreased
  REM bout duration: did not affect
  REM bout number: did not affect
  REM sleep onset latency: did not affect
  cumulative total sleep time: increased
  mean duration of NREM bouts per hour: increased
  number of NREM bouts per hour: unaffected
  total wake time: decreased

## CCCCCc1cc(O)c2c(c1)OC(C)(C)[C@@H]1CCC(C)=C[C@@H]21 [Δ^9-THC, Δ^9-tetrahydrocannabinol]
rats
  REM: suppressed
rabbits
  NREM and REM sleep: early-phase NREM and REM suppression, followed by a later phase increase in NREM sleep
[2]
  NREM and REM sleep: tended to increase NREM but suppress REM sleep
